The values that follow come from the SangsterLogP compilation.

The structures appear in SMILES notation.

Assay in the first data set: not given
Details: not given
In the case of `O=C1C(=Cc2ccc([N+](=O)[O-])cc2)CCCc2ccccc21`, the logP came to 4.15. The same measure, in the same setting: the figure for `COc1ccccc1C=C1CCc2ccccc2C1=O` is 4.43; for `N#Cc1ccc(/C=C/C(=O)c2ccccc2)cc1` it is 2.93.

Regarding `COc1cccc(C=C2Cc3ccccc3C2=O)c1`, the log partition coefficient (logP) amounted to 3.97. In turn, `Cc1ccc(C=C2CCCc3ccccc3C2=O)cc1` registered a log partition coefficient (logP) of 5.1.

`O=C1C(=Cc2ccc(Br)cc2)CCCc2ccccc21` returned a log partition coefficient (logP) of 5.22. On the same count and under the same terms, the figure for `O=C1/C(=C\c2ccccc2)CCc2ccccc21` is 4.14; for `O=C1C(=Cc2ccccc2Cl)CCCc2ccccc21` it is 5.04. On the same count and under the same terms, the value for `O=C1C(=Cc2ccccc2)CCCc2ccccc21` was 4.48; that for `CN(C)c1ccc(/C=C/C(=O)c2ccccc2)cc1` was 4.23.

On to `COc1ccc(C=C2Cc3ccccc3C2=O)cc1`, for which the logP is 3.91. On the same count and under the same terms, the value for `COc1cccc(/C=C2\CCc3ccccc3C2=O)c1` was 4.42; that for `COc1ccc(C=C2CCc3ccccc3C2=O)cc1` was 4.32. For `COc1cccc(C=CC(=O)c2ccccc2)c1`, the logP worked out at 3.8. The compound `CN(C)c1ccc(C=C2Cc3ccccc3C2=O)cc1` gave a logP of 4.5. On the same count and under the same terms, the value for `O=C1C(=Cc2cccc([N+](=O)[O-])c2)CCCc2ccccc21` was 4.32; that for `Cc1ccccc1C=C1CCCc2ccccc2C1=O` was 4.92. Still for that read-out and setting: the value for `COc1ccccc1C=C1CCCc2ccccc2C1=O` was 4.69; that for `COc1ccccc1C=C1Cc2ccccc2C1=O` was 4.01. Still for that read-out and setting: the figure for `CN(C)c1ccc(C=C2CCc3ccccc3C2=O)cc1` is 4.91.

The compound `O=C1C(=Cc2cccc(F)c2)CCCc2ccccc21` came in with a lipophilicity (logP) of 4.6.

Compound `COc1ccccc1C=CC(=O)c1ccccc1` yielded a log partition coefficient (logP) of 3.99. The same measure, in the same setting: the figure for `CN(C)c1ccc(C=C2CCCc3ccccc3C2=O)cc1` is 5.26; for `Cc1cccc(C=C2CCCc3ccccc3C2=O)c1` it is 4.98; for `O=C1C(=Cc2ccc(F)cc2)CCCc2ccccc21` it is 4.45. The same measure, in the same setting: the figure for `COc1ccc(C=C2CCCc3ccccc3C2=O)cc1` is 4.72; for `O=C1C(=Cc2ccc(Cl)cc2)CCCc2ccccc21` it is 5.1; for `O=C1C(=Cc2ccccc2Br)CCCc2ccccc21` it is 5.04. `O=C1/C(=C/c2ccccc2[N+](=O)[O-])CCCc2ccccc21` yielded a lipophilicity (logP) of 4.07. Still for that read-out and setting: the figure for `COc1ccc(/C=C/C(=O)c2ccccc2)cc1` is 3.67. On the same count and under the same terms, the value for `O=C1C(=Cc2cccc(Br)c2)CCCc2ccccc21` was 5.35.

The next data set in a line: method code SF-AS, from Krisztina, T.; Perjesi, P.; Vámos, J. (2001). Determination of logP for biologically active chalcones and cyclic chalcone analogs by RPTLC. Journal of Planar Chromatography - Modern TLC. 14, 42-46. Particulars: pH 7.4.
Consider `O=C(C=Cc1ccccc1)c1ccccc1`, for which the logD is 3.62. Same read-out and setting: the value for `O=C1C(=Cc2ccccc2)Cc2ccccc21` was 3.66.

The term logP denotes the decadic logarithm of the partition coefficient of the neutral form, usually between octanol and water. A low value points to lower lipophilicity. What is called logD is the decadic logarithm of the distribution of all forms, ionised or not, between an organic phase and buffer at a given pH.
